The results in this text go back to EP1874311B1, “A METHOD FOR PREVENTING, DELAYING OR REVERTING ABNORMAL AMYLOID DEPOSITION” (Research & Innovation S.p.A., priority 2005, dated 2006).

The subject of assay [1] is H4/APP cells. As to the kind of experiment: Secretion of total beta-amyloid into culture medium of H4/APP cells (ELISA). Type of assay: cell-based, Human. As to conditions: for activity at 10 µM / activity at 30 µM: read-out: beta-amyloid concentration in culture medium; for beta-amyloid concentration in culture medium: h4/app cells, 120 min. The protocol: Human neuroglioma (H4) cells, stably transfected with the gene codifying for the human protein APP695 having mutations related to Alzheimer disease, have been used.
Cells were grown in OPTI-MEM containing 10% FBS (foetal bovine serum), hygromycin (0.2 mg/ml) and blasticidine (0.002 mg/ml).
The Aβ peptide in cells is produced by the sequential processing of beta- and gamma-secretases proteases and is then secreted in the culture medium.
Peptide concentration in the extracellular medium was measured using a specific ELISA methodology.
Confluent H4/APP cells where incubated for 2 h with the vehicle (0.1 % DMSO) or with nicardipine at different concentrations (3µM, 10µM, 30µM), beta-amyloid concentration in culture medium is expressed as % control
(An ELISA detects its analyte on a solid surface through an enzyme-linked reagent.)

Assay [2] concerns TG2576 mice. As to the kind of experiment: Plasma amyloidogenic Aβ peptides in TG2576 mice after i.p. administration (ELISA). Type of assay: in vivo. The settings on record: 3 hours after 10 mg/kg i.p.; for Aβ1-42 (%) / Total Aβ (%): before treatment = 100. The protocol: The selected dihydropyridine, nicardipine (see table 2) as well as nimodipine were administered, in TG2576 animals, at dose of 10 mg/Kg i.p. Animals were bleed before treatment for assessment of basal circulating Aβ peptides as well as 3 hours post-treatment. Determination of blood amyloidogenic Aβ peptide concentration was performed using ELISA technique.
Table 2 Levels of the amyloidogenic peptides in plasma of TG2576 mice before and 3 hours following administration of the exemplified dihydropyridines

[3] abbreviates: Homo sapiens, 10µM, 2 h incubation, confluent H4/APP cells, vehicle = 100.
Setting [4] is: Homo sapiens, 30µM, 2 h incubation, confluent H4/APP cells, vehicle = 100.

Where two headings read alike, the source gives them in different places. Marks after values point to notes of the source that are not given here.

For `COC(=O)C1=C(C)NC(C)=C([N+](=O)[O-])C1c1ccccc1C(F)(F)F` (stereo not shown) [BayK 8644], the activity at 10 µM in assay [1] (setting [3]) stood at 98%. Also, in assay [1] (setting [4]), the activity at 30 µM was found to be 96%. In addition, the “beta-amyloid content in culture media from H4/APP cells” value in assay [1] (result in words) is on record as “did not affect”.
`COC(=O)C1=C(C)NC(C)=C(C(=O)OCCN(C)Cc2ccccc2)C1c1cccc([N+](=O)[O-])c1` (stereo not shown) [Nicardipine, nicardipine]: in assay [2], the “Aβ1-42 (%)” value turned out to be 176% and the “Total Aβ (%)” value was 170%. Also, in assay [1] (setting [3]), the activity at 10 µM is 62%. The activity at 30 µM in assay [1] (setting [4]) is 58%.
With `COCCOC(=O)C1=C(C)NC(C)=C(C(=O)OC(C)C)C1c1cccc([N+](=O)[O-])c1` (stereo not shown) [Nimodipine, nimodipine], in assay [2], the “Aβ1-42 (%)” value is 156% and the “Total Aβ (%)” value was found to be 87%. Further, the “Total Aβ (pM)” value in assay [2] (n=7) was 759,1±27,0 pM.
For `COC(=O)C1=C(C)NC(C)=C(C(=O)OCCCN2CCC(c3ccccc3)(c3ccccc3)CC2)C1c1cccc([N+](=O)[O-])c1` (single isomer, unassigned; (-)) [(-)Niguldipine, (-)niguldipine], in assay [1] (30 µM), the “inhibition of the extracellular amount of Aβ peptides” value came out at 53% and the “beta-amyloid concentration in culture medium” value was 47* % control. Also, the “beta-amyloid concentration in culture medium” value in assay [1] (10 µM) is 68* % control.
Regarding `COC(=O)C1=C(C)NC(C)=C(C(=O)OCCCN2CCC(c3ccccc3)(c3ccccc3)CC2)C1c1cccc([N+](=O)[O-])c1` (single isomer, unassigned; (+)) [(+)Niguldipine, (+)niguldipine], in assay [1] (Homo sapiens, 2 h), the activity at 10 µM was found to be 71% and the activity at 30 µM is 43%. In addition, in assay [1] (Homo sapiens, read-out: inhibition of the extracellular amount of Aβ peptides), the inhibition (as a rule, how much of the control response was suppressed) at 30 µM amounted to 57%.
